Test results: US6884577B2, “Methods for screening compounds for estrogenic activity” (The Regents of the University of California, priority 1993, dated 2005)

Columns and labels:
[1] = tested on: HE15 activation of AP-1 activity; experiment: Inhibitor screen: HE15 (constitutive ER) activation of AP-1 activity; assay type: cell-based; details: HeLa cells
Procedure: (§1) An estrogen receptor (ER) was transiently transfected into either HeLa or HepG2 cells along with an AP-1 responsive reporter gene, Coll73-LUC. The transformed cells were then contacted with antiestrogens or estrogen in combination with prospective inhibitor drugs. […] Luciferase was measured in cell extracts as an indication of AP-1 dependent promoter activity.

[2] = tested on: ER activation of AP-1 (Coll73-LUC); experiment: Inhibitor screen: ER transiently transfected with Coll73-LUC in HeLa or HepG2 cells, hormone plus prospective inhibitor; assay type: cell-based
Procedure: as §1

[3] = tested on: human ER at the AP-1 site of the collagenase promoter (coll73); experiment: Coll73-LUC luciferase reporter (collagenase promoter with AP-1 site) in cells transfected with human ER expression vector HEO; assay type: cell-based; details: for Coll73 Luciferase Activity: relative to no ER; for half maximal dose relative to that for estrogen, induction of coll73-LUC: HeLa cells, 5 μg ER expression vector, FIG. 3B
Procedure: All reporter genes described below have been modified by digestion with EcoR I and Ndel to remove a AP-I site in the backbone of pUG. […] Coll73-LUC was constructed by cloning a BamHI/Pvull fragment, that spanned the luciferase transcription unit, from pMG3 into coll73, which had been digested with BamHI and SmaI to remove the CAT transcription unit.
(§2) Cells were maintained and transfected as previously described in Webb et al., supra. […] F9 cells were seeded at 30% confluence upon 1.5 cm dishes and transfected overnight by calcium phosphate coprecipitation with 5 μg reporter gene, 1 μg actin β-HCG, and 1 μg of HEO, 300 ng each of c-jun and c-fos expression vectors. The cells were glycerol shocked and refed in growth medium containing hormone or ethanolic vehicle.
(§3) CAT assays were carried out as described in Webb et al., except that the cells were harvested one to two days after transfection instead of three. CAT activities were defined as the increase in cpm per hour at room temperature (corrected for background) per 100 μl of cell extract, normalized to production of 100 standard units of βHCG, from a co-transfected reporter gene, actin-HCG. […] Light units were defined as the luciferase activity per 100 μl of cell extract per 100 standard units of βHCG. Relative luciferase activities were calculated with respect to the results that were obtained in the absence of ER and hormone, which was set at 1 unit. For the data presented in Table I triplicate points were determined.
In each case, the cells were transfected with different amounts of the human ER expression vector HEO to determine the optimal response.

ER at classical ERE = experiment: Reporter genes containing classical EREs (ERE-coll60, ERE-tk) in cells with ER; assay type: cell-based, human
Procedure: FIGS. 2A-2C show antiestrogen stimulation of expression in an intact AP-1 Site, but not at classical EREs. […] Representations, at left, show the human collagenase promoter (shaded) and the consensus AP-1 site. CAT activities were from cells maintained in the absence of hormone or saturating concentrations of ICI 164,384 (ICI, 1 μM), tamoxifen (5 μM) or estradiol ([…]). CAT activity is normalized to a transfection control with the actin promoter driving expression of βHCG. Single representative experiments are shown, error bars represent standard deviation of triplicate hormone treatments.
All reporter genes described below have been modified by digestion with EcoR I and Ndel to remove a AP-I site in the backbone of pUG. Thus, Coll73 and Coll60 are formerly_Coll73 and_Coll60 (Lopez et al. Mol. Cell. Biol. 13:3042-930 (1993)). Coll73-LUC was constructed by cloning a BamHI/Pvull fragment, that spanned the luciferase transcription unit, from pMG3 into coll73, which had been digested with BamHI and SmaI to remove the CAT transcription unit. EREcoll60 and EREcoll73 was prepared by ligation of a consensus ERE ([…], SEQ ID NO:3), into the HindIII site upstream of coll60 and coll73, respectively. All other reporter genes have been previously described (Webb et al. Mol. Endocrinol. 6:157-16725 (1992): and Lopez et al., supra).
Cells were maintained and transfected as previously described in Webb et al., supra. Hormones were added two hours after plating in the following concentrations, estradiol 100 nM, ICI 164,384 1 μM, tamoxifen 5 μM, to ensure saturation of the response. F9 cells were seeded at 30% confluence upon 1.5 cm dishes and transfected overnight by calcium phosphate coprecipitation with 5 μg reporter gene, 1 μg actin β-HCG, and 1 μg of HEO, 300 ng each of c-jun and c-fos expression vectors. The cells were glycerol shocked and refed in growth medium containing hormone or ethanolic vehicle. In transient transfections, optimal amounts of HEO were employed and were as follows: HeLa (5 μg); NIH3T3 (1 μg); HepG2 (1 μg); SHM (300 ng); SY5Y (300 ng); CEF (100 ng); CV-1 (3 μg); MDA453 (3 μg); CHO (100 ng) and F9 (1 μg).
CAT assays were carried out as described in Webb et al., except that the cells were harvested one to two days after transfection instead of three. CAT activities were defined as the increase in cpm per hour at room temperature (corrected for background) per 100 μl of cell extract, normalized to production of 100 standard units of βHCG, from a co-transfected reporter gene, actin-HCG. Luciferase assays were performed as described by Brasier et al. Methods Enzymol 216:386-97 (1992)) on similar extracts that were used for CAT assays. Light units were defined as the luciferase activity per 100 μl of cell extract per 100 standard units of βHCG. Relative luciferase activities were calculated with respect to the results that were obtained in the absence of ER and hormone, which was set at 1 unit. For the data presented in Table I triplicate points were determined. Standard deviations were less than 20%.
The activity of antiestrogens in the AP-1 pathway was also compared with their activity in the classical pathway. […] A promoter with both an ERE and an AP-1 site (ERE-coll73 FIG. 2C) gave a large estrogen response, but retained some response to antiestrogens. Another control reporter, in which the tk promoter was regulated by a classical ERE (ERE-tk FIG. 2C) was also activated by estrogen, but not by antiestrogens.

[4] = tested on: human ER at the AP-1 site (collagenase promoter, AP-1-tk), HeLa cells; experiment: CAT assays of HeLa cells transfected with AP-1 site reporter genes and human ER expression vector; assay type: cell-based
Procedure: Representations, at left, show the human collagenase promoter (shaded) and the consensus AP-1 site. […] CAT activity is normalized to a transfection control with the actin promoter driving expression of βHCG. Single representative experiments are shown, error bars represent standard deviation of triplicate hormone treatments.
as §2, §3
To further examine the effects of antiestrogens on the AP-1 directed pathway, reporter genes derived from the human collagenase promoter were transfected into HeLa cells.

[5] = tested on: ER at classical ERE, Ishikawa cells; experiment: ERE-coll60CAT reporter in Ishikawa cells; assay type: cell-based
Description: Left panel, coll73-CAT response with endogenous ER contrasted with the response of an ERE regulated reporter, ERE-coll60CAT. […] Averages of three individual experiments are shown. […] A single representative experiment with triplicate hormone treatments is shown.
(§4) To further explore this phenomenon, and to test whether similar hormone effects could be detected at physiological levels of ER, the expression of the collagenase promoter in cells that express endogenous ER was examined.

[6] = tested on: ER at classical ERE, ERC1 cells; experiment: Estrogenic activity screen: CAT reporter gene linked to a classical ERE in ERC1 cells; assay type: cell-based, human; details: ICI 164384 with series 4 compounds
Procedure: A library of hydroxystilbene derivatives as shown in FIG. 9 was screened for estrogenic activity in cell culture assays using a CAT reporter gene linked to a classical ERE in ERC1 cells as described in Webb et al., supra. After transient transfection with CAT reporter genes, each hydroxystilbene was added to the cultured ERC 1 cells. ER-regulated response was compared either to treatment with 17β-estradiol as a calibration standard or to treatment with an ethanolic vehicle.
Dose response experiments were performed on the series 4 compounds over a concentration range of 0-100 μM (FIG. 1).

[7] = tested on: ER at the AP-1 site of the collagenase promoter; experiment: Collagenase promoter reporter in cells that express endogenous ER (Ishikawa, MCF-7, ZR-75-1); assay type: cell-based; details: for activation of the collagenase promoter (coll73-CAT) / induction of the collagenase promoter (coll73-LUC): Ishikawa cells; for activation of the collagenase promoter (coll73-CAT): endogenous receptor, FIG. 4A; for induction of the collagenase promoter (coll73-LUC): receptor levels raised by transfection
Procedure: Left panel, coll73-CAT response with endogenous ER contrasted with the response of an ERE regulated reporter, ERE-coll60CAT. Right panel, coll73-LUC response with 3 μg co-transfected expression vector for human ER. Averages of three individual experiments are shown. […] A single representative experiment with triplicate hormone treatments is shown.
as §4

MCF-7 cell = details: Braacke et al. 1991; cited from earlier work
[8] = CEF (fibroblast), no hormone, saturating hormone
[9] = CHO (ovary), no hormone, saturating hormone
[10] = CV-1 (kidney), no hormone, saturating hormone
[11] = F9 (teratocarcinoma), no hormone, unliganded ER gave 3.2
[12] = HELA (cervix), no hormone = 1, ICI 1 μM, tamoxifen 5 μM, estradiol 100 nM
[13] = HEP G2 (liver), no hormone, saturating hormone
[14] = MDA453 (breast), no hormone, saturating hormone
[15] = NIH 3T3 (fibroblast), no hormone, saturating hormone
[16] = SHM (myometrium), no hormone, saturating hormone
[17] = SY5Y (neuroblastoma), no hormone, saturating hormone

calphostin c
inhibition of the activation of AP-1 activity by HE15 [1]: did not

Nc1ncc2[nH]cnc2n1 [2-aminopurine]
inhibition of the activation of AP-1 activity by HE15 [1]: inhibit
inhibition of hormone action at AP-1 sites [2]: inhibit hormone action at AP-1 sites

CCCCN(C)C(=O)CCCCCCCCCC[C@@H]1Cc2cc(O)ccc2[C@H]2CC[C@]3(C)[C@@H](O)CC[C@H]3[C@H]12 [ICI 164,384]
Coll73 Luciferase Activity [3, 8]: 3.2
Coll73 Luciferase Activity [3, 9]: 1.8
Coll73 Luciferase Activity [3, 10]: 3.1
Coll73 Luciferase Activity [3, 11]: 2.4
Coll73 Luciferase Activity [3, 12]: 3.7
Coll73 Luciferase Activity [3, 13]: 5.2
half maximal dose relative to that for estrogen, induction of coll73-LUC [3]: about 10 times
Coll73 Luciferase Activity [3, 14]: 1.1
Coll73 Luciferase Activity [3, 15]: 3.0
Coll73 Luciferase Activity [3, 16]: 1.9
Coll73 Luciferase Activity [3, 17]: 2.3
activity at classical EREs (ER at classical ERE; range of cell types of Table I (data not shown)): pure antagonist
activation of transcription, collagenase AP-1 site upstream of the herpes virus tk promoter [4]: able to activate transcription
expression of ERE-coll60 [5]: neither ICI nor tamoxifen activated
inhibition of the series 4 estrogenic activity [6]: inhibit the estrogenic activity of all the series 4 compounds
activation of the collagenase promoter (coll73-CAT) [7]: usually inactive
induction of the collagenase promoter (coll73-LUC) [7]: inductions became detectable
MCF-7 cell invasion activity of a re-constituted basement membrane (MCF-7 cell): blocked

Nc1nc2nc[nH]c2c(=S)[nH]1 [6-thioguanine]
inhibition of the activation of AP-1 activity by HE15 [1]: inhibit
inhibition of hormone action at AP-1 sites [2]: inhibit hormone action at AP-1 sites

CC/C(=C(\c1ccccc1)c1ccc(OCCN(C)C)cc1)c1ccccc1 [tamoxifen]
Coll73 Luciferase Activity [3, 8]: 2.2
Coll73 Luciferase Activity [3, 9]: 2.2
Coll73 Luciferase Activity [3, 10]: 5.3
Coll73 Luciferase Activity [3, 11]: 1.1
Coll73 Luciferase Activity [3, 12]: 7.4
Coll73 Luciferase Activity [3, 13]: 6.5
half maximal dose relative to that for estrogen, induction of coll73-LUC [3]: ~100 times
Coll73 Luciferase Activity [3, 14]: 2.1
Coll73 Luciferase Activity [3, 15]: 3.1
Coll73 Luciferase Activity [3, 16]: 2.2
Coll73 Luciferase Activity [3, 17]: 2.1
inductions at classical EREs, % of estrogen (ER at classical ERE; CEF cells): 30%
inductions at classical EREs, % of estrogen (ER at classical ERE; CV-1 cells): 30%
inductions of ERE-coll60 activity relative to those obtained with estrogen (ER at classical ERE; HeLa cells, and most other cases): less than 3%
inductions at classical EREs, % of estrogen (ER at classical ERE; MDA453 cells): 30%
activation of transcription, collagenase AP-1 site upstream of the herpes virus tk promoter [4]: able to activate transcription
activation of the collagenase promoter (coll517, coll73) ([4]; transiently expressed human ER, FIG. 2A): more potent an activator than estrogen
expression of ERE-coll60 [5]: neither ICI nor tamoxifen activated
activation of the collagenase promoter (coll73-CAT) [7]: activated
induction of the collagenase promoter (coll73-LUC) [7]: inductions became larger
activation of the collagenase promoter ([7]; MCF-7 cells, endogenous ER, FIG. 4B): not tamoxifen
activation of the collagenase promoter ([7]; ZR-75-1 cells): The same pattern occurred

O=c1c(-c2ccc(O)cc2)coc2cc(O)cc(O)c12 [genistein]
inhibition of the activation of AP-1 activity by HE15 [1]: inhibit
inhibition of hormone action at AP-1 sites [2]: inhibit hormone action at AP-1 sites

CC/C(=C(\c1ccccc1)c1ccc(OCCN(C)C)cc1)c1ccc(O)cc1 [4′-hydroxytamoxifen]
MCF-7 cell invasion activity of a re-constituted basement membrane (MCF-7 cell): stimulated

O=S(=O)(NCCNC/C=C/c1ccc(Br)cc1)c1cccc2cnccc12 [H89]
inhibition of the activation of AP-1 activity by HE15 [1]: did not
